Where two headings read alike, the source gives them in different places.
Assays:
[1] = intradermal delivery; literature; cited from earlier work
[2] = in vivo, cited from earlier work
[3] = design: species or system humans; conditions: in vivo
Description: (§1) Osterode et al. published plasma concentration data for humans injected with ANP by either SQ or IV bolus. FIG. 5 presents the IV bolus data (FIG. 5A) and SQ bolus data (FIG. 5B) from the Osterode et al. with selected points digitized shown by open circles.
The digitized data points from FIG. 5A and FIG. 5B were baseline-corrected and analyzed using a commercial pharmacokinetic analysis software package (Phoenix v6.2, Pharsight, Cary, N.C.). Non-compartmental analysis (NCA) was performed first, followed by compartmental modeling. Bioavailability for administration into the SQ space (F) was estimated by dividing the area-under-the-curve (AUC) for the SQ bolus (FIG. 5B) by the AUC IV bolus (FIG. 5A), which was assumed to have 100% bioavailability. The slope of the terminal phase (λZ) for the IV and SQ data from FIG. 5 was estimated using linear regression. The estimate for λZ was converted to a half-life (t1/2) using Equation 1. […]
Similarly, the one-compartmental model for SQ bolus injection can be modeled by Equations 4 and 5, where Aa is the amount of drug in the injection site (pmol), ka is the absorption rate constant (1/min), and F is the bioavailability as a unitless decimal. […] Clearance (CL) and t½ were calculated as secondary model parameters. […]

clinical = test: clinical; design: species or system humans; conditions: in vivo; for bioavailability: F (bioavailability)
Description: as §1
The digitized data points from FIG. 5A and FIG. 5B were baseline-corrected and analyzed using a commercial pharmacokinetic analysis software package (Phoenix v6.2, Pharsight, Cary, N.C.). Non-compartmental analysis (NCA) was performed first, followed by compartmental modeling. Bioavailability for administration into the SQ space (F) was estimated by dividing the area-under-the-curve (AUC) for the SQ bolus (FIG. 5B) by the AUC IV bolus (FIG. 5A), which was assumed to have 100% bioavailability. The slope of the terminal phase (λZ) for the IV and SQ data from FIG. 5 was estimated using linear regression. The estimate for λZ was converted to a half-life (t1/2) using Equation 1.
Similarly, the one-compartmental model for SQ bolus injection can be modeled by Equations 4 and 5, where Aa is the amount of drug in the injection site (pmol), ka is the absorption rate constant (1/min), and F is the bioavailability as a unitless decimal. The initial estimates for primary model parameters ke and V/F were taken from the results of the NCA analysis of the IV data (ke=λZ) from the IV bolus data in FIG. 5A from Osterode et al. The initial estimate for the primary model parameter ka was taken from the results of the NCA analysis of the SQ data (ka=λZ) from the SQ bolus data in FIG. 5B. Clearance (CL) and t½ were calculated as secondary model parameters.
Table 1 reports the values for AUC, elimination t1/2, volume of distribution (V) and clearance (CL) reported by Osterode et al. compared to those obtained from the NCA analysis of the digitized data as described above.
The results of the one-compartment modeling of the data from Osterode et al. are reported in Table 2 and FIG. 7, where the present NCA results are also included for comparison. FIGS. 7A (log scale) and 7B (non-log scale) show a model for a 50 μg IV bolus and FIGS. 7C (log scale) and 7D (non-log scale) show a model for a 50 μg SQ bolus. Both the NCA and compartmental analysis estimate the bioavailability to be approximately 20%. It is notable that the estimates for ka from the SQ bolus data are nearly identical for the NCA and compartmental analysis (0.039 min^−1), while the compartmental analysis estimate for ke is 2.6-times greater than the NCA estimate (0.26 vs. 0.099 min^−1).

[4] = in vivo, iv, 50 ug; cited from earlier work

In the case of Entanercept, the “bioavailability (in words)” value [1] is given as “high bioavailability”.

In the case of `CC[C@H](C)[C@@H]1NC(=O)[C@H](CCCNC(=N)N)NC(=O)[C@H](CC(=O)O)NC(=O)[C@H](CCSC)NC(=O)[C@H](CCCNC(=N)N)NC(=O)CNC(=O)CNC(=O)[C@H](Cc2ccccc2)NC(=O)[C@@H](NC(=O)[C@H](CO)NC(=O)[C@H](CO)NC(=O)[C@H](CCCNC(=N)N)NC(=O)[C@H](CCCNC(=N)N)NC(=O)[C@H](CC(C)C)NC(=O)[C@@H](N)CO)CSSC[C@@H](C(=O)N[C@@H](CC(N)=O)C(=O)N[C@@H](CO)C(=O)N[C@@H](Cc2ccccc2)C(=O)N[C@@H](CCCNC(=N)N)C(=O)N[C@@H](Cc2ccc(O)cc2)C(=O)O)NC(=O)CNC(=O)[C@H](CC(C)C)NC(=O)CNC(=O)[C@H](CO)NC(=O)[C@H](CCC(N)=O)NC(=O)[C@H](C)NC(=O)CNC1=O` [ANP, atrial natriuretic peptide], the “F (bioavailability)” value ([2]; human) is given as 19.2%, the AUC ([2]; 50 ug) is given as 345 pmol·min/L and the “mean terminal half-life, SQ bolus compared to IV bolus” value ([2]; 50 ug) is given as 3 fold. For the same molecule, the AUC ([3]; human, iv, 50 ug) was 1731 pmol·min/L, the ke [3] was 0.099 min⁻¹ and the AUC (clinical; human, 50 ug) was 344 pmol·min/L. The bioavailability (clinical; human) was roughly 20%, the “F (bioavailability)” value (clinical; human, iv) was 19.9% and the bioavailability (clinical; human, iv) was roughly 20%. The V/F (clinical) was 167 L, the “compartmental analysis estimate for ke relative to NCA estimate” value (clinical) was 2.6 times and the ke (clinical) was 0.26 min⁻¹. For the same molecule, the “ke/ka (elimination greater than absorption)” value (clinical) was 6.6 and the AUC [4] was 1793 pmol·min/L.

In the case of Somatropin, the “bioavailability (in words)” value [1] is given as “high bioavailability”.
